The source of these data is patent publication US5677459A, “Methods for the preparation of modulators of acetylcholine receptors” (Sibia Neurosciences, Inc., priority 1995, dated 1997).

Read-outs that look alike come from different tables or passages of the source.

Assay [1] has as its system rats with unilateral 6-hydroxydopamine lesions of the nigrostriatal dopamine pathway. Type of assay: in vivo, rat (male Sprague-Dawley). On the procedure: Selective lesions of the brain dopamine pathway using the neurotoxin 6-hydroxydopamine (6-OHDA) in rats can be used as an experimental approach to Parkinson's disease. Unilateral lesions of the nigrostriatal dopamine pathway induce a postural asymmetry which becomes manifested as rotation when the animals are activated by dopamine releasers or dopamine agonists. When amphetamine and other stimulant drugs that induce pre-synaptic release of dopamine from intact nerve terminals are administered, the rats rotate in a direction ipsilateral to the lesion. In contrast, when the rats are injected with post-synaptic dopamine receptor agonists, such as apomorphine, they turn in a contralateral direction, due to the development of supersensitive dopamine receptors in the lesioned side. Thus, the 6-OHDA model can be used to determine if a suspected dopaminergic agent is active, and to differentiate whether such action is pre- or post-synaptic.
The effects of invention compounds on rotational behavior in 6-hydroxydopamine denervated rats were evaluated using the procedure of Ungerstedt and Arbutknott, Brain Res. 24:485-493 (1970). Male Sprague-Dawley rats (Zivic Miller) weighing 170-200 gm were used in the 6-OHDA procedure. The ascending nigrostriatal dopamine pathway was lesioned by unilateral stereotaxic injection of 6-OHDA (8.0 μg) into one substantia nigra. All injections of 6-OHDA were preceded by desmethylimipramine (25 mg/kg i.p.) and pargyline (75 mg/kg i.p.) approximately 30 minutes prior to undergoing stereotaxic surgery for 6-OHDA infusion into the substantia nigra. After one week of recovery from surgery, the effectiveness of the lesions was verified by noting the response of the animals to apomorphine (0.2 mg/kg, s.c.). Only rats with a minimum rate of 80 contralateral turns per 30 minutes (a sign of more than 80-90% dopamine depletion after a 6-OHDA lesion) were used. Two weeks later, the selected rats were tested with invention and reference compounds using an automated rotometer system to record the number and direction of rotations. In order to distinguish spontaneous (non-specific)rotations from induced rotations (specific to the effect of the drug), each rat was used as its own control, employing the following procedure:
The rat was placed in the rotometer system for acclimatation for 15 minutes, the vehicle administered subcutaneously, the rat's rotations recorded for one hour, then test compound was administered s.c. and rotations again recorded for one hour. The number of ipsilateral rotations induced by vehicle was then compared to the number of ipsilateral rotations induced by test compound. Statistical analysis of the data was carried out using Student's t-test (paired).

Assay [2] deals with rats. The assay can be described thus: Locomotor activity assay. Type of assay: in vivo, rat (male Sprague-Dawley). To be noted: Rattus norvegicus, sc, s.c.; for change in vivo at 1 mg/kg: 1 mg/kg salt. On the procedure: This assay can be used to assess the primary effect of a compound on general motor activity. A decrease in locomotor activity is indicative of a possible sedative effect on the animal, whereas an increase in locomotor activity is indicative of a stimulant effect on the animal.
Locomotor activity of rats (male Sprague-Dawley (Harlan) weighing 200-250 gm) was measured for 2 hrs in photocell cages immediately after administration of the invention compound. Prior to the test day, the animals were placed in the activity cages for 3 hrs to familiarize them with the experimental environment. On the test day, the animals were placed in the photocell cages and then injected with compound 1.5 hrs later.
The photocell cages were standard rodent cages (30 cm×20 cm×40 cm) with four infrared beams crossing the long axis. The animals were under no motivational constraints and were free to move around. Movements from one infrared beam to another (ambulation) were called "crossover"; successive interruptions of the same beam (vertical and other movements such as grooming) were called "general activity."

Assay [3] relates to ^3 H-Dopamine release, rat striatal slices. The assay can be described thus: Ligand-stimulated ^3 H-dopamine release from rat striatal slices. In kind it is cell-based. How it is done: (§1) Measurement of ^3 H-dopamine release from rat striatal slices was performed according to the method of Sacaan et al. (J. Neurochem. 59:245 (1992)). Male Sprague-Dawley rats (250-300 g) were decapitated and the striata or olfactory tubercles dissected quickly on a cold glass surface. The tissue was chopped to a thickness of 300 μm with a McIlwain tissue chopper. After chopping again at right angles the tissue was dispersed and incubated for 10 min. at 37° C. in oxygenated Kreb's buffer. ^3 H-Dopamine (40 Ci/mmol, NEN- Dupont, Boston, Mass.) was added (50 nM) and the tissue was incubated for 30 min. in Kreb's buffer containing 10 μM pargyline and 0.5 mM ascorbic acid. Aliquots of the minced tissue were then transferred to chambers of a Brandel Superfusion system in which the tissue was supported on Whatman GF/B filter discs. The tissue was then superfused with buffer at a constant flow rate of 0.3 ml/min by means of a Brandel peristaltic pump. The perfusate was collected in plastic scintillation vials in 3-min fractions, and the radioactivity was estimated by scintillation spectrophotometry. The superfusate for the first 120 min was discarded. After two baseline fractions had been collected, the superfusion buffer was switched to fresh buffer with or without compound of interest. At the end of the experiment the filter and the tissue were removed, and the radiolabeled neurotransmitter content was estimated after extraction into scintillation fluid. The fractional efflux of radiolabeled neurotransmitter was estimated as the amount of radioactivity in the perfusate fraction relative to the total amount in the tissue.
(§2) Results of studies of the effects of an invention compound (as compared to the effect of nicotine) on the release of neurotransmitters from rat brain slices are presented in Table II. Results presented in Part A of the Table are expressed as the percent fractional release and results presented in Part B of the Table are expressed as a percentage, relative to nicotine response.

Assay [4] relates to ^3 H-Norepinephrine release, rat hippocampus slices. Description: Ligand-stimulated ^3 H-norepinephrine release from rat hippocampus slices. Type of assay: cell-based. On the procedure:
as §1
(§3) Following essentially the same procedure as set forth above, the amount of ^3 H-norepinephrine released from rat hippocampus, thalamus and prefrontal cortex slices superfused with buffer containing (or lacking) compounds of interest was also measured.
as §2

Assay [5] deals with ^3 H-Norepinephrine release, rat thalamus slices. Description: Ligand-stimulated ^3 H-norepinephrine release from rat thalamus slices. In kind it is cell-based. To be noted: Nicotine concentration was 100 μM. On the procedure: as §1, §3, §2
Assay [6] has as its system ^3 H-Norepinephrine release, rat prefrontal cortex slices. The assay can be described thus: Ligand-stimulated ^3 H-norepinephrine release from rat prefrontal cortex slices. In kind it is cell-based. To be noted: in vitro slices, 300 μM. How it is done:
as §1, §3, §2

Assay [7] deals with ^3 H-Dopamine release, rat olfactory tubercles. Description: Ligand-stimulated ^3 H-dopamine release from rat olfactory tubercles. In kind it is cell-based. To be noted: Nicotine concentration was 100 μM. How it is done: as §1, §2

On to `CC(N)Cc1ccccc1` (centres unmarked) [Amphetamine, amphetamine, reference compound], for which the “Percent change from control (ipsilateral rotations)” value in assay [1] (1 mg/kg base, s.c., per one hour interval) is given as “+487%”. Besides, the change in vivo at 0.5 mg/kg in assay [2] (2 h, 60-120 min, 0.5 mg/kg salt, read-out: General Activity (beam breaks), percent of change from control) was 456%.

For the compound `CN1CCCC1c1cccnc1` (centres unmarked) [Nicotine, nicotine, reference compound], the “percent fractional release, ^3 H-Dopamine, Striatum” value in assay [3] (Nicotine concentration was 100 μM) is recorded as 1.84%. The Emax at 10 µM in assay [3] (Rattus norvegicus, nicotine itself at 10 μM (reference), read-out: % of Nicotine Response, ^3 H-Dopamine, Striatum) stood at 100%. Also, the Emax at 300 µM in assay [4] (Rattus norvegicus, nicotine 300 μM = 100, read-out: % of Nicotine Response, ^3 H-Norepinephrine, Hippocampus) turned out to be 100%. Moreover, in assay [4] (in vitro slices, 300 μM), the “percent fractional release, ^3 H-Norepinephrine, Hippocampus” value turned out to be 6.19%. Besides, the “percent fractional release, ^3 H-Norepinephrine, Thalamus” value in assay [5] was found to be 1.83%. Besides, the “percent fractional release, ^3 H-Norepinephrine, Prefrontal Cortex” value in assay [6] is 2.32%. Also, in assay [7], the “percent fractional release, ^3 H-Dopamine, Olfactory Tubercles” value was determined as 5.61%. Moreover, the “Percent change from control (ipsilateral rotations)” value in assay [1] (rat, in vivo) was “+357”. The change in vivo at 1 mg/kg in assay [2] (1 h, 0-60 min, read-out: Ambulation (cross overs), percent of change from control) was 169%; in assay [2] (1 h, 0-60 min, read-out: General Activity (beam breaks), percent of change from control), 27%; in assay [2] (2 h, 60-120 min, read-out: Ambulation (cross overs), percent of change from control), 163%; in assay [2] (2 h, 60-120 min, read-out: General Activity (beam breaks), percent of change from control), 71%.
